Molecules are shown by their SMILES.

Assay [1] deals with L1210. Briefly: Cell cycle arrest in mouse L1210 cells assessed as accumulation at G2M phase at 10 uM after 21 hrs using propidium iodide staining by flow cytometry. The assay is classed as functional. Background: In flow cytometry, cells or beads pass a laser one at a time.
Assay [2] in a line: Cytotoxicity against human KB3-1 cells after 96 hrs by microculture tetrazolium assay. The assay is classed as functional, cell-based. The following applies: KB 3-1, 96 h.
In assay [3] the test system is L1210. As to the kind of experiment: Cell cycle arrest in mouse L1210 cells assessed as accumulation at S phase at 10 uM after 21 hrs using propidium iodide staining by flow cytometry. The assay is classed as functional.
Assay [4] deals with L1210. Briefly: Cytotoxicity against mouse L1210 cells after 48 hrs by microculture tetrazolium assay. Format: functional, cell-based. The note with it: L1210, 48 h.
Assay [5] concerns L1210. Briefly: Cell cycle arrest in mouse L1210 cells assessed as accumulation at G1 phase at 10 uM after 21 hrs using propidium iodide staining by flow cytometry. The assay is classed as functional.

With `CC(C)(C)C(=O)OCC1=C[C@@H](OC(=O)C(C)(C)C)C2=CC(=O)O[C@@H](O[C@@H]3O[C@H](COC(=O)C(C)(C)C)[C@@H](OC(=O)C(C)(C)C)[C@H](OC(=O)C(C)(C)C)[C@H]3OC(=O)C(C)(C)C)[C@H]12`, the Activity in the assay on L1210 [1] amounted to 45%; with L1210 [3] it was 19%; with L1210 [5], 36%. The IC50 in assay [2] was 0.42 µM; in the assay on L1210 [4], 4 µM.
As to `CC1=C[C@@H](OC(=O)C(C)(C)C)C2=CC(=O)O[C@@H](O[C@@H]3O[C@H](COC(=O)C(C)(C)C)[C@@H](OC(=O)C(C)(C)C)[C@H](OC(=O)C(C)(C)C)[C@H]3OC(=O)C(C)(C)C)[C@H]12`, the values for the IC50 (in assay [2]; with L1210 [4]) were 7.2 µM and 24.8 µM, respectively.

A word on the IC50: it is the concentration that gives 50% inhibition. A low value points to higher potency.
